Source: ChEMBL document CHEMBL3745666, “Syntheses and anti-inflammatory activity of azamollugin derivatives” (Bioorg Med Chem Lett, 2016)

System: RAW264.7
Test: Antiinflammatory activity in mouse RAW264.7 cells assessed as inhibition of LPS-induced NO production compound pretreated for 1 hr followed by addition of 100 ng/ml LPS for 24 hrs by griess method
Assay type: functional, cell-based

| SMILES | IC50 [µM] | inhibition |
| --- | --- | --- |
| COC(=O)C1=C2C=CC(C)(C)OC2(O)c2ccccc2C1=O (stereo unspecified) | 1.3 |  |
| CNC(=N)NCCC[C@H](N)C(=O)O [TILARGININE] | 73.3 |  |
| COC(=O)C1=C2C=CC(C)(C)N=C2c2ccccc2C1=O | 0.34 | Dose-dependent effect |

Further lines, with some results ahead:

| IC50 [µM] | SMILES | inhibition |
| --- | --- | --- |
| > 50 | COC(=O)c1c(O)c2ccccc2c2ncccc12 |  |
| > 50 | COC(=O)c1c(O)c2ccccc2c2nc(C)ccc12 |  |
